Laboratory results from ChEMBL document CHEMBL1124634, “Synthesis and antirhinovirus activity of 6-(dimethylamino)-2-(trifluoromethyl)-9-(substituted benzyl)-9H-purines” (J Med Chem, 1989).

tested on: Human rhinovirus sp.; assay: Antiviral activity against rhinoviral 12 serotype in a plaque inhibition assay using monolayers of M-HeLa cells; format: functional, organism-based; details: not given

SMILES	IC50
CN(C)c1nc(C(F)(F)F)nc2c1ncn2Cc1ccc(F)cc1	8 µM
CN(C)c1nc(C(F)(F)F)nc2c1ncn2Cc1ccc(C(F)(F)F)cc1	5.2 µM
Cc1ccc(Cn2cnc3c(N(C)C)nc(C(F)(F)F)nc32)cc1	2.6 µM

tested on: Human rhinovirus sp.; assay: Percent inhibitory activity at 8 uM against rhinoviral 13 serotype in a plaque inhibition assay using monolayers of M-HeLa cells; format: functional; details: not given

SMILES	Inhibition
CN(C)c1nc(C(F)(F)F)nc2c1ncn2Cc1ccc(F)cc1	42%
CN(C)c1nc(C(F)(F)F)nc2c1ncn2Cc1ccc(C(F)(F)F)cc1	22%

tested on: Human rhinovirus sp.; assay: Percent inhibitory activity at 8 uM against rhinoviral 5 serotype in a plaque inhibition assay using monolayers of M-HeLa cells; format: functional; details: not given

SMILES	Inhibition
CN(C)c1nc(C(F)(F)F)nc2c1ncn2Cc1ccc(F)cc1	11%
Cc1ccc(Cn2cnc3c(N(C)C)nc(C(F)(F)F)nc32)cc1	18%

tested on: Human rhinovirus sp.; assay: Antiviral activity against rhinoviral 5 serotype in a plaque inhibition assay using monolayers of M-HeLa cells; format: functional, organism-based; details: not given

SMILES	IC50
CN(C)c1nc(C(F)(F)F)nc2c1ncn2Cc1ccc(C(F)(F)F)cc1	> 8 µM

tested on: Human rhinovirus sp.; assay: Percent inhibitory activity at 8 uM against rhinoviral 21 serotype in a plaque inhibition assay using monolayers of M-HeLa cells; format: functional; details: not given

SMILES	Inhibition
CN(C)c1nc(C(F)(F)F)nc2c1ncn2Cc1ccc(F)cc1	34%
Cc1ccc(Cn2cnc3c(N(C)C)nc(C(F)(F)F)nc32)cc1	40%

tested on: not listed separately; assay: Percent inhibitory activity at 5 uM against rhinoviral 16 serotype in a plaque inhibition assay using monolayers of M-HeLa cells; format: functional, Homo sapiens; details: not given

SMILES	Inhibition
Cc1ccc(Cn2cnc3c(N(C)C)nc(C(F)(F)F)nc32)cc1	12%

tested on: Human rhinovirus sp.; assay: Antiviral activity against rhinoviral-19 serotype in a plaque inhibition assay using monolayers of M-HeLa cells; format: functional, organism-based; details: not given

SMILES	IC50
Cc1ccc(Cn2cnc3c(N(C)C)nc(C(F)(F)F)nc32)cc1	6.7 µM

tested on: Human rhinovirus sp.; assay: Percent inhibitory activity at 8 uM against rhinoviral 19s erotype in a plaque inhibition assay using monolayers of M-HeLa cells; format: functional; details: not given

SMILES	Inhibition
CN(C)c1nc(C(F)(F)F)nc2c1ncn2Cc1ccc(F)cc1	22%

tested on: Human rhinovirus sp.; assay: Antiviral activity against rhinoviral 14 serotype in a plaque inhibition assay using monolayers of M-HeLa cells; format: functional, organism-based; details: not given

SMILES	IC50
CN(C)c1nc(C(F)(F)F)nc2c1ncn2Cc1ccc(F)cc1	7.1 µM
CN(C)c1nc(C(F)(F)F)nc2c1ncn2Cc1ccc(C(F)(F)F)cc1	7 µM
Cc1ccc(Cn2cnc3c(N(C)C)nc(C(F)(F)F)nc32)cc1	1.2 µM

tested on: not listed separately; assay: Percent inhibitory activity at 2.5 uM against rhinoviral 4 serotype in a plaque inhibition assay using monolayers of M-HeLa cells; format: functional, Homo sapiens; details: not given

SMILES	Inhibition
Cc1ccc(Cn2cnc3c(N(C)C)nc(C(F)(F)F)nc32)cc1	41 µM

tested on: not listed separately; assay: Percent inhibitory activity at 4 uM against rhinoviral 2 serotype in a plaque inhibition assay using monolayers of M-HeLa cells; format: functional, Homo sapiens; details: not given

SMILES	Inhibition
CN(C)c1nc(C(F)(F)F)nc2c1ncn2Cc1ccc(C(F)(F)F)cc1	23 µM

tested on: Human rhinovirus sp.; assay: Antiviral activity against rhinoviral 8 serotype in a plaque inhibition assay using monolayers of M-HeLa cells; format: functional, organism-based; details: not given

SMILES	IC50
CN(C)c1nc(C(F)(F)F)nc2c1ncn2Cc1ccc(F)cc1	8 µM
CN(C)c1nc(C(F)(F)F)nc2c1ncn2Cc1ccc(C(F)(F)F)cc1	> 8 µM

tested on: Human rhinovirus sp.; assay: Antiviral activity against rhinoviral 16 serotype in a plaque inhibition assay using monolayers of M-HeLa cells; format: functional, organism-based; details: not given

SMILES	IC50
CN(C)c1nc(C(F)(F)F)nc2c1ncn2Cc1ccc(F)cc1	1.3 µM
CN(C)c1nc(C(F)(F)F)nc2c1ncn2Cc1ccc(C(F)(F)F)cc1	1.2 µM

tested on: Human rhinovirus sp.; assay: Antiviral activity against rhinoviral 21 serotype in a plaque inhibition assay using monolayers of M-HeLa cells; format: functional, organism-based; details: not given

SMILES	IC50
CN(C)c1nc(C(F)(F)F)nc2c1ncn2Cc1ccc(C(F)(F)F)cc1	8.2 µM

tested on: Human rhinovirus sp.; assay: Antiviral activity against rhinoviral 9 serotype in a plaque inhibition assay using monolayers of M-HeLa cells; format: functional, organism-based; details: not given

SMILES	IC50
CN(C)c1nc(C(F)(F)F)nc2c1ncn2Cc1ccc(F)cc1	0.87 µM
CN(C)c1nc(C(F)(F)F)nc2c1ncn2Cc1ccc(C(F)(F)F)cc1	2.2 µM
Cc1ccc(Cn2cnc3c(N(C)C)nc(C(F)(F)F)nc32)cc1	0.35 µM

tested on: Human rhinovirus sp.; assay: Antiviral activity against rhinoviral 31 serotype in a plaque inhibition assay using monolayers of M-HeLa cells; format: functional, organism-based; details: not given

SMILES	IC50
CN(C)c1nc(C(F)(F)F)nc2c1ncn2Cc1ccc(C(F)(F)F)cc1	6 µM
Cc1ccc(Cn2cnc3c(N(C)C)nc(C(F)(F)F)nc32)cc1	1.2 µM

tested on: not listed separately; assay: Percent inhibitory activity at 2.5 uM against rhinoviral 3 serotype in a plaque inhibition assay using monolayers of M-HeLa cells; format: functional, Homo sapiens; details: not given

SMILES	Inhibition
Cc1ccc(Cn2cnc3c(N(C)C)nc(C(F)(F)F)nc32)cc1	43 µM

tested on: Human rhinovirus sp.; assay: Antiviral activity against rhinoviral 30 serotype in a plaque inhibition assay using monolayers of M-HeLa cells; format: functional, organism-based; details: not given

SMILES	IC50
CN(C)c1nc(C(F)(F)F)nc2c1ncn2Cc1ccc(F)cc1	9 µM
Cc1ccc(Cn2cnc3c(N(C)C)nc(C(F)(F)F)nc32)cc1	2.2 µM

tested on: Human rhinovirus sp.; assay: Percent inhibitory activity at 8 uM against rhinoviral 31 serotype in a plaque inhibition assay using monolayers of M-HeLa cells; format: functional; details: not given

SMILES	Inhibition
CN(C)c1nc(C(F)(F)F)nc2c1ncn2Cc1ccc(F)cc1	47%

tested on: Human rhinovirus sp.; assay: Percent inhibitory activity at 8 uM against rhinoviral 30 serotype in a plaque inhibition assay using monolayers of M-HeLa cells; format: functional; details: not given

SMILES	Inhibition
CN(C)c1nc(C(F)(F)F)nc2c1ncn2Cc1ccc(C(F)(F)F)cc1	40%

tested on: Human rhinovirus sp.; assay: Antiviral activity against rhinoviral 19 serotype in a plaque inhibition assay using monolayers of M-HeLa cells; format: functional, organism-based; details: not given

SMILES	IC50
CN(C)c1nc(C(F)(F)F)nc2c1ncn2Cc1ccc(C(F)(F)F)cc1	5.2 µM

tested on: Human rhinovirus sp.; assay: Antiviral activity against rhinoviral-18 serotype in a plaque inhibition assay using monolayers of M-HeLa cells; format: functional, organism-based; details: not given

SMILES	IC50
Cc1ccc(Cn2cnc3c(N(C)C)nc(C(F)(F)F)nc32)cc1	1.8 µM

tested on: not listed separately; assay: Antiviral activity against rhinoviral 13 serotype in a plaque inhibition assay using monolayers of M-HeLa cells; format: functional, cell-based; details: Homo sapiens

SMILES	IC50
Cc1ccc(Cn2cnc3c(N(C)C)nc(C(F)(F)F)nc32)cc1	2.6 µM

tested on: Human rhinovirus sp.; assay: Antiviral activity against rhinoviral-1B serotype in a plaque inhibition assay using monolayers of M-HeLa cells; format: functional, organism-based; details: not given

SMILES	IC50
CN(C)c1nc(C(F)(F)F)nc2c1ncn2Cc1ccc(F)cc1	0.05 µM
CN(C)c1nc(C(F)(F)F)nc2c1ncn2Cc1ccc(C(F)(F)F)cc1	0.11 µM
Cc1ccc(Cn2cnc3c(N(C)C)nc(C(F)(F)F)nc32)cc1	0.03 µM

tested on: not listed separately; assay: Percent inhibitory activity at 8 uM against rhinoviral 2 serotype in a plaque inhibition assay using monolayers of M-HeLa cells; format: functional, Homo sapiens; details: not given

SMILES	Inhibition
CN(C)c1nc(C(F)(F)F)nc2c1ncn2Cc1ccc(F)cc1	27%

tested on: not listed separately; assay: Percent inhibitory activity at 2.5 uM against rhinoviral 8 serotype in a plaque inhibition assay using monolayers of M-HeLa cells; format: functional, Homo sapiens; details: not given

SMILES	Inhibition
Cc1ccc(Cn2cnc3c(N(C)C)nc(C(F)(F)F)nc32)cc1	41 µM

tested on: Human rhinovirus sp.; assay: Antiviral activity against rhinoviral-1A serotype in a plaque inhibition assay using monolayers of M-HeLa cells; format: functional, organism-based; details: not given

SMILES	IC50
CN(C)c1nc(C(F)(F)F)nc2c1ncn2Cc1ccc(F)cc1	1.3 µM
CN(C)c1nc(C(F)(F)F)nc2c1ncn2Cc1ccc(C(F)(F)F)cc1	0.91 µM
Cc1ccc(Cn2cnc3c(N(C)C)nc(C(F)(F)F)nc32)cc1	0.1 µM

tested on: Human rhinovirus sp.; assay: Percent inhibitory activity at 8 uM against rhinoviral 3 serotype in a plaque inhibition assay using monolayers of M-HeLa cells; format: functional; details: not given

SMILES	Inhibition
CN(C)c1nc(C(F)(F)F)nc2c1ncn2Cc1ccc(F)cc1	35%
CN(C)c1nc(C(F)(F)F)nc2c1ncn2Cc1ccc(C(F)(F)F)cc1	44%

tested on: Human rhinovirus sp.; assay: Antiviral activity against rhinoviral 15 serotype in a plaque inhibition assay using monolayers of M-HeLa cells; format: functional, organism-based; details: not given

SMILES	IC50
CN(C)c1nc(C(F)(F)F)nc2c1ncn2Cc1ccc(F)cc1	8.7 µM
CN(C)c1nc(C(F)(F)F)nc2c1ncn2Cc1ccc(C(F)(F)F)cc1	4.2 µM
Cc1ccc(Cn2cnc3c(N(C)C)nc(C(F)(F)F)nc32)cc1	1 µM

tested on: Human rhinovirus sp.; assay: Antiviral activity against rhinoviral 4 serotype in a plaque inhibition assay using monolayers of M-HeLa cells; format: functional, organism-based; details: not given

SMILES	IC50
CN(C)c1nc(C(F)(F)F)nc2c1ncn2Cc1ccc(F)cc1	3.8 µM
CN(C)c1nc(C(F)(F)F)nc2c1ncn2Cc1ccc(C(F)(F)F)cc1	6 µM

tested on: Human rhinovirus sp.; assay: Antiviral activity against rhinoviral 2 serotype in a plaque inhibition assay using monolayers of M-HeLa cells; format: functional, organism-based; details: not given

SMILES	IC50
Cc1ccc(Cn2cnc3c(N(C)C)nc(C(F)(F)F)nc32)cc1	5.7 µM

tested on: Human rhinovirus sp.; assay: Antiviral activity against rhinoviral 29 serotype in a plaque inhibition assay using monolayers of M-HeLa cells; format: functional, organism-based; details: not given

SMILES	IC50
CN(C)c1nc(C(F)(F)F)nc2c1ncn2Cc1ccc(F)cc1	4 µM
CN(C)c1nc(C(F)(F)F)nc2c1ncn2Cc1ccc(C(F)(F)F)cc1	7.2 µM
Cc1ccc(Cn2cnc3c(N(C)C)nc(C(F)(F)F)nc32)cc1	4.2 µM

tested on: Human rhinovirus sp.; assay: Antiviral activity against rhinoviral 18 serotype in a plaque inhibition assay using monolayers of M-HeLa cells; format: functional, organism-based; details: not given

SMILES	IC50
CN(C)c1nc(C(F)(F)F)nc2c1ncn2Cc1ccc(F)cc1	8.9 µM
CN(C)c1nc(C(F)(F)F)nc2c1ncn2Cc1ccc(C(F)(F)F)cc1	6.6 µM
